One may read the IC50 as the midpoint of a concentration-inhibition curve. Lower therefore signals higher potency.

This is an account of results in US12533394B2, “Compositions and methods for treating metabolic disorders” (GlycoMantra Inc., priority 2023, dated 2026).

The target in assay [1] is T1, Gal3 (Homo sapiens, UniProt P17931). Kind of assay: Solid-phase assay, blocking Gal3 binding (inhibition curves, FIG. 2). The source says: For the purposes of this disclosure, an “inhibition curve” is a graphical representation used in pharmacology and biochemistry to show how an inhibitor affects the activity of an enzyme, a biological process, or the like. Typically, an inhibition curve plots the concentration of an inhibitor on the x-axis and the corresponding reduction in an enzyme activity (or another measurable response) on the y-axis. An inhibition curve may help visualize the relationship between inhibitor concentration and its effectiveness. As a nonlimiting example, an inhibition curve may be used to determine a half-maximal inhibitory concentration or IC50 value. For the purposes of this disclosure, half-maximal inhibitory concentration or IC50 is the concentration of an inhibitor needed to reduce the activity of a receptor or an enzyme by 50%. A small IC50 value typically indicates a stronger binding affinity between an inhibitor and its target, and vice versa. IC50 is a commonly used indication regarding a drug's efficacy and potency and is often used in pharmacological research. For the purposes of this disclosure, drug potency is the amount of a drug needed to produce a given effect. […] It is often measured using the EC50, i.e., the concentration at which 50% of the maximum effect is observed. […]

The target of assay [2] is T1, Gal3. The conditions noted are these: Table 1, comparison galectin antagonists; cited from earlier work.

T1 sequence (P17931 whole entry, species assumed): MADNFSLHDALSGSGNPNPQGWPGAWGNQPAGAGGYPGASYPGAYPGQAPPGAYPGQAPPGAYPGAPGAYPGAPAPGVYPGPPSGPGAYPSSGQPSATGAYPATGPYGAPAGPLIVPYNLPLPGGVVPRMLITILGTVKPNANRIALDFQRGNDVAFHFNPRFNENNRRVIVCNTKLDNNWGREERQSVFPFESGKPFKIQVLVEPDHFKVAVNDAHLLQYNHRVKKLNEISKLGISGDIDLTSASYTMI

Compound `CC(=O)N[C@H]1C(O)O[C@H](CO)[C@H](O)[C@@H]1O[C@@H]1O[C@H](CO)[C@H](O)[C@H](O)[C@H]1O` (some centres unmarked) [synthetic TFD, Galβ1-3GalNAc] registered an IC50 on Gal3 [1] of 200 µM. `OC[C@H]1O[C@@H](S[C@@H]2O[C@H](CO)[C@H](O)[C@H](n3cc(-c4cccc(F)c4)nn3)[C@H]2O)[C@H](O)[C@@H](n2cc(-c3cccc(F)c3)nn2)[C@H]1O` [TD139]: the “Specificity to Gal3” value at Gal3 [2] was “No”.
